From ChEMBL document CHEMBL1126181, “New nonpeptide angiotensin II receptor antagonists. 1. Synthesis, biological properties, and structure-activity relationships of 2-alkyl benzimidazole derivatives” (J Med Chem, 1992)

How the values were obtained:
[1] = molecular target: Type-1 angiotensin II receptor (Rattus norvegicus) (UniProt P25095); assay: The compound was tested for Angiotensin II (AII) antagonist activity in vivo in an […], normotensive rat model upon intravenous administration
[2] = molecular target: Type-1 angiotensin II receptor (Rattus norvegicus) (UniProt P25095); assay: The compound was tested for Angiotensin II (AII) antagonist activity in vivo in an AII infused, normotensive rat model upon intravenous administration

Sequence of Type-1 angiotensin II receptor (Rattus norvegicus) (P25095 whole entry, looked up, the tested form may be a part): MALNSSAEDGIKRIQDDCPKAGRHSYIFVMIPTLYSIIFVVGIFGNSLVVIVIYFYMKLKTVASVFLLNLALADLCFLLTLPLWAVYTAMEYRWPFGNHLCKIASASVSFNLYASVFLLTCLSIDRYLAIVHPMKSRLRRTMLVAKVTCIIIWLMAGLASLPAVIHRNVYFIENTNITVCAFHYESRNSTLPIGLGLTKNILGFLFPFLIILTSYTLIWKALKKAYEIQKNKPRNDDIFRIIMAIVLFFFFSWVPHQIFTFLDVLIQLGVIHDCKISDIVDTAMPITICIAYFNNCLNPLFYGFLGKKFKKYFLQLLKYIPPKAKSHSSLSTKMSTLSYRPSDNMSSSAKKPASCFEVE

Structure (SMILES) | ED50 [1] | ED50 [2]
CCCCc1nc2cc(F)ccc2n1Cc1ccc(C(=O)O)cc1 | 9.1 mg/kg | –
CCCCc1nc2ccccc2n1Cc1ccc(-c2ccccc2-c2nn[nH]n2)cc1 | – | 5.2 mg/kg
CCCCCCc1nc2ccccc2n1Cc1ccc(C(=O)O)cc1 | > 20 mg/kg | –
CCCCc1nc2ccccc2n1Cc1ccc(C(=O)O)c(Br)c1 | 5 mg/kg | –

Other lines, results leading:

ED50 [1] | ED50 [2] | Structure (SMILES)
16.1 mg/kg | – | CCCCc1nc2ccccc2n1Cc1ccc(C(=O)O)cc1OC
12.6 mg/kg | – | CCCCc1nc2ccccc2n1Cc1ccc(C(=O)O)cc1
11.1 mg/kg | – | CCCCc1nc2ccccc2n1Cc1ccc(C(=O)O)cc1Br
